pEC50: −log10 of the molar value.

For orientation: pEC50 means the negative decadic logarithm of the EC50, by convention in mol/L.

Test [1] concerns the target T1, CFTR (Homo sapiens, UniProt P13569). The experiment in a line: Membrane Potential Dye, Enteroid Assay A. The conditions noted are these: for pEC50: read-out: Ent. A EC50. Format: cell-based. The protocol:
Base medium (ADF+++) consisted of Advanced […], 2 mM Glutamax, 10 mM HEPES, 1 μg/mL penicillin/streptomycin.
Intestinal enteroid maintenance medium (IEMMN) consisted of ADF+++, 1× B27 supplement, 1× N2 supplement, 1.25 mM N-acetyl cysteine, 10 mM Nicotinamide, 50 ng/mL hEGF, 10 nM Gastrin, 1 μg/mL hR-spondin-1, 100 ng/mL hNoggin, TGF-b type 1 inhibitor A-83-01, 100 μg/mL Primocin, 10 μM P38 MAPK inhibitor SB202190.
Bath 1 Buffer consisted of 1 mM MgCl2, 160 mM NaCl, 4.5 mM KCl, 10 mM HEPES, 10 mM Glucose, 2 mM CaCl2).
Chloride Free Buffer consisted of 1 mM Magnesium Gluconate, 2 mM Calcium Gluconate, 4.5 mM Potassium Gluconate, 160 mM Sodium Gluconate, 10 mM HEPES, 10 mM Glucose.
Bath 1 Dye Solution consisted of Bath 1 Buffer, 0.04% Pluronic F127, 20 μM Methyl Oxonol, 30 μM CaCCinh-A01, 30 μM Chicago Sky Blue.
Chloride Free Dye Solution consisted of Chloride Free Buffer, 0.04% Pluronic F127, 20 μM Methyl Oxonol, 30 μM CaCCinh-A01, 30 μM Chicago Sky Blue.
Chloride Free Dye Stimulation Solution consisted of Chloride Free Dye Solution, 10 μM forskolin, 100 μM IBMX, and 300 nM Compound III.
Human intestinal epithelial enteroid cells were obtained from the Hubrecht Institute for Developmental Biology and Stem Cell Research, Utrecht, The Netherlands and expanded in T-Flasks as previously described (Dekkers J F, Wiegerinck C L, de Jonge H R, Bronsveld I, Janssens H M, de Winter-de Groot K M, Brandsma A M, de Jong N W M, Bijvelds M J C, Scholte B J, Nieuwenhuis E E S, van den Brink S, Clevers H, van der Ent C K, Middendorp S and M Beekman J M. A functional CFTR assay using primary cystic fibrosis intestinal organoids. Nat Med. 2013 July; 19(7):939-45.).
3. Enteroid Cell Harvesting and Seeding
Cells were recovered in cell recovery solution, collected by centrifugation at 650 rpm for 5 min at 4° C., resuspended in TrypLE and incubated for 5 min at 37° C. Cells were then collected by centrifugation at 650 rpm for 5 min at 4° C. and resuspended in IEMM containing 10 μM ROCK inhibitor (RI). The cell suspension was passed through a 40 μm cell strainer and resuspended at 1×10^6 cells/mL in IEMM containing 10 μM RI. Cells were seeded at 5000 cells/well into multi-well plates and incubated for overnight at 37° C., 95% humidity and 5% CO2 prior to assay.
4. Membrane Potential Dye, Enteroid Assay A
Enteroid cells were incubated with test compound in IEMM for 18-24 hours at 37° C., 95% humidity and 5% CO2. […] Briefly, cells were washed 5 times in Bath 1 Buffer. Bath 1 Dye Solution was added, and the cells were incubated for 25 min at room temperature. Following dye incubation, cells were washed 3 times in Chloride Free Dye Solution. Chloride transport was initiated by addition of Chloride Free Dye Stimulation Solution and the fluorescence signal was read for 15 min. […] Chloride transport was then expressed as a percentage of the chloride transport following treatment with 3 μM N-[(6-amino-2-pyridyl)sulfonyl]-6-(3-fluoro-5-isobutoxy-phenyl)-2-[(4S)-2,2,4-trimethylpyrrolidin-1-yl]pyridine-3-carboxamide, 3 μM (R)-1-(2,2-difluorobenzo[d][1,3]dioxol-5-yl)-N-(1-(2,3-dihydroxypropyl)-6-fluoro-2-(1-hydroxy-2-methylpropan-2-yl)-1H-indol-5-yl)cyclopropanecarboxamide and 300 nM acute N-[2,4-bis(1,1-dimethylethyl)-5-hydroxyphenyl]-1,4-dihydro-4-oxoquinoline-3-carboxamide triple combination control (% Activity).

Test [2] addresses T1, CFTR. In words: Membrane Potential Dye, Enteroid Assay B. Format: cell-based. The conditions noted are these: for pEC50: read-out: Ent. B EC50. In short, it runs like this: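 Human intestinal enteroid cells exposed to compound 18-24 h at 37 °C, then loaded with methyl oxonol membrane-potential dye plus CaCC blockers. Chloride transport triggered in chloride-free buffer with 10 μM forskolin, 100 μM IBMX, 300 nM Compound III; fluorescence read 15 min, expressed as % of triple-corrector/potentiator combination control.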

T1 sequence (P13569 with tags, fused parts or gaps DEL508-508): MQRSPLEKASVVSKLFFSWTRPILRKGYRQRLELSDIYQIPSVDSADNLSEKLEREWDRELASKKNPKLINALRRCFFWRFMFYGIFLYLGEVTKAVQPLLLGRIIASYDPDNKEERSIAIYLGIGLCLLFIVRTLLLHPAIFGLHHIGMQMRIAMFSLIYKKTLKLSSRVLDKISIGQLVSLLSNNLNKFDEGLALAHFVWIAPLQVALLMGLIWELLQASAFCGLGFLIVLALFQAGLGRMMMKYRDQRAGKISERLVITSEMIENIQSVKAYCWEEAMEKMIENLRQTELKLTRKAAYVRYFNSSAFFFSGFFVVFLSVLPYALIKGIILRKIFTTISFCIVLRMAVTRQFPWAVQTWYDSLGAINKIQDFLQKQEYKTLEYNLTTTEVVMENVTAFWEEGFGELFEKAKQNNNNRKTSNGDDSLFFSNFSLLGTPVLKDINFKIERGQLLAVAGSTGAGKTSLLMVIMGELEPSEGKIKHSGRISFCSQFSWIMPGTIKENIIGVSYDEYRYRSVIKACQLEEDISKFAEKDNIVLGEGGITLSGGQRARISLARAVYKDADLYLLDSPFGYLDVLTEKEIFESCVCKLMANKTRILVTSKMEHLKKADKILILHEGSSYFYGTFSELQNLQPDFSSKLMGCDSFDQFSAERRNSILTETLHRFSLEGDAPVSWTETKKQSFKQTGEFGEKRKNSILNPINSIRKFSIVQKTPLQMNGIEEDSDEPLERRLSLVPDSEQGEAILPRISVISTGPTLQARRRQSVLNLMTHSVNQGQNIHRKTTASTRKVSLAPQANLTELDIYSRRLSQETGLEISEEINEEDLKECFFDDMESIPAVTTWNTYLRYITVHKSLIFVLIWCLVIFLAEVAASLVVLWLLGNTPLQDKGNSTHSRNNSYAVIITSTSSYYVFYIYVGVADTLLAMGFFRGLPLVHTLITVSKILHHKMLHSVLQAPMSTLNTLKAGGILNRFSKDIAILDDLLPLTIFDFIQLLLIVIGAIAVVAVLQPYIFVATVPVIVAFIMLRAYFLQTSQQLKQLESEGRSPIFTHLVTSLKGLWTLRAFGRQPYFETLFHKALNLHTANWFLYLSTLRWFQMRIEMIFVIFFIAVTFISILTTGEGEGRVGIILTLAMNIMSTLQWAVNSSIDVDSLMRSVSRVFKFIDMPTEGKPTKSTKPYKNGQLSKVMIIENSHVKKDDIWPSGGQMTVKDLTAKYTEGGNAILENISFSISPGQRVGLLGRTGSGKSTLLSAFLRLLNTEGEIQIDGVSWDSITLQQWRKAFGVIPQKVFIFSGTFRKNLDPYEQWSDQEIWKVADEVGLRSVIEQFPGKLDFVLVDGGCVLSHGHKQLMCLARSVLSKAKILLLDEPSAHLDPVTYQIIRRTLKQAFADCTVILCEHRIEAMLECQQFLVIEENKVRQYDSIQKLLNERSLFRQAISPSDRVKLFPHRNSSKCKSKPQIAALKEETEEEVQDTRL

Consider `COC(=O)N1CCC2(CC1)CC(N1C(=O)c3cccc(c3)S(=O)(=O)Nc3nc(cc(-c4c(C)cccc4C)n3)OC[C@H]1CC(C)C)C2` [Compound 19, methyl 2-[(11R)-6-(2,6-dimethylphenyl)-11-isobutyl-2,2,13-trioxo-9-oxa-2λ^6-thia-3,5,12,19-tetrazatricyclo[12.3.1.14,8]nonadeca-1(18),4(19),5,7,14,16-hexaen-12-yl]-7-azaspiro[3.5]nonane-7-carboxylate], for which, in test [1], the “Ent. A Max Activity (%)” value is given as “+++ (+++ is >60%)” and the pEC50 is more than 6.00. Moreover, in test [2], the “Ent. B Max Activity (%)” value is reported as “+++ (+++ is >60%)” and the negative-log EC50 (pEC50) was more than 6.00.

With `Cc1cccc(C)c1-c1cc2nc(n1)NS(=O)(=O)c1cccc(c1)C(=O)N([C@H]1C[C@@H](NC(=O)OC(C)(C)C)C1)[C@H](CC(C)C)CO2` [Compound 349], in test [1], the “Ent. A Max Activity (%)” value is “+++ (+++ is >60%)” and the negative logarithm of the EC50 (pEC50) is more than 6.00. In addition, in test [2], the “Ent. B Max Activity (%)” value is on record as “++ (++ is 30-60%)” and the pEC50 was more than 6.00.

Consider `Cc1cccc(C)c1-c1cc2nc(n1)NS(=O)(=O)c1cccc(c1)C(=O)N(C1CC3(CCN(C)CC3)C1)C[C@@H](C)O2` [Compound 179, (10R)-6-(2,6-Dimethylphenyl)-10-methyl-12-(7-methyl-7-azaspiro[3.5]nonan-2-yl)-2,2-dioxo-9-oxa-2λ^6-thia-3,5,12,19-tetrazatricyclo[12.3.1.14,8]nonadeca-1(18),4(19),5,7,14,16-hexaen-13-one], for which, in test [1], the “Ent. A Max Activity (%)” value is “+++ (+++ is >60%)” and the pEC50 was 5.52 to 6.00.

Regarding `Cc1cccc(C)c1-c1cc2nc(n1)NS(=O)(=O)c1cccc(c1)C(=O)N(C1CC3(CC3)C1)C(CC(F)(F)F)CO2` (single isomer, unassigned) [Compound 109, 6-(2,6-Dimethylphenyl)-2,2-dioxo-12-spiro[2.3]hexan-5-yl-11-(2,2,2-trifluoroethyl)-9-oxa-2λ^6-thia-3,5,12,19-tetrazatricyclo[12.3.1.14,8]nonadeca-1(18),4(19),5,7,14,16-hexaen-13-one], in test [1], the “Ent. A Max Activity (%)” value is “++ (++ is 30-60%)” and the negative-log EC50 (pEC50) is 5.52 to 6.00.

As for `Cc1cccc(C)c1-c1cc2nc(n1)NS(=O)(=O)c1cccc(c1)C(=O)N(C1CC3(CC3)C1)C(CC(C)(C)C(F)(F)F)CO2` (stereo not shown) [Compound 216], in test [1], the “Ent. A Max Activity (%)” value was “+++ (+++ is >60%)” and the pEC50 was more than 6.00.

`Cc1cccc(C)c1-c1cc2nc(n1)NS(=O)(=O)c1cccc(c1)C(=O)N(C1CCC1)[C@H](CC(C)C)CO2` [Compound 27, (11R)-12-cyclobutyl-6-(2,6-dimethylphenyl)-11-isobutyl-2,2-dioxo-9-oxa-2λ^6-thia-3,5,12,19-tetrazatricyclo[12.3.1.14,8]nonadeca-1(18),4(19),5,7,14,16-hexaen-13-one]: in test [1], the “Ent. A Max Activity (%)” value is reported as “++ (++ is 30-60%)” and the negative-log EC50 (pEC50) was more than 6.00.

`Cc1cccc(C)c1-c1cc2nc(n1)NS(=O)(=O)c1cccc(c1)C(=O)N([C@H]1C[C@@H](O)C1)[C@H](CC(C)C)CO2` (single isomer, unassigned) [Compound 44]: in test [1], the “Ent. A Max Activity (%)” value is on record as “+++ (+++ is >60%)” and the pEC50 is more than 6.00.

On to `Cc1cccc(C)c1-c1cc2nc(n1)NS(=O)(=O)c1cccc(c1)C(=O)N([C@H]1C[C@@H](OCc3ccccc3)C1)[C@H](CC(C)C)CO2` (single isomer, unassigned) [Compound 42], for which, in test [1], the “Ent. A Max Activity (%)” value is reported as “++ (++ is 30-60%)” and the negative logarithm of the EC50 (pEC50) is more than 6.00.

Take `CC(=O)N1CC2(CC(N3C(=O)c4cccc(c4)S(=O)(=O)Nc4nc(cc(-c5c(C)cccc5C)n4)OC[C@H]3CC(C)C)C2)C1` [Compound 335]: in test [1], the “Ent. A Max Activity (%)” value is given as “++ (++ is 30-60%)” and the negative-log EC50 (pEC50) was more than 6.00.

Consider `COC(=O)N1CCC2(CC1)CC(N1C(=O)c3cccc(c3)S(=O)(=O)Nc3nc(cc(C4CCCCC4(C)C)n3)OC[C@H]1CC(C)C)C2` (stereo partly shown) [Compound 395], for which, in test [1], the “Ent. A Max Activity (%)” value is “++ (++ is 30-60%)” and the negative-log EC50 (pEC50) is more than 6.00.

`Cc1cccc(C)c1-c1cc2nc(n1)NS(=O)(=O)c1cccc(c1)C(=O)N(C1CC3(CCCCC3)C1)[C@H](CC(C)C)CO2` [Compound 338]: in test [1], the “Ent. A Max Activity (%)” value is reported as “++ (++ is 30-60%)” and the negative-log EC50 (pEC50) was more than 6.00.

In the case of `CC(C)C[C@@H]1COc2cc(C3CCCCC3(C)C)nc(n2)NS(=O)(=O)c2cccc(c2)C(=O)N1C1CC2(CCN(C(=O)OC(C)(C)C)CC2)C1` (stereo partly shown) [Compound 400], in test [1], the “Ent. A Max Activity (%)” value was “++ (++ is 30-60%)” and the pEC50 was more than 6.00.

Take `Cc1cccc(C)c1-c1cc2nc(n1)NS(=O)(=O)c1cccc(c1)C(=O)N(C1CC3(CCCC3)C1)[C@H](CC(C)C)CO2` [Compound 339]: in test [1], the “Ent. A Max Activity (%)” value is recorded as “+++ (+++ is >60%)” and the negative logarithm of the EC50 (pEC50) was more than 6.00.

For the compound `Cc1cccc(C)c1-c1cc2nc(n1)NS(=O)(=O)c1cccc(c1)C(=O)N(C1CC3(CCN(C)CC3)C1)C(CC1(C(F)(F)F)CC1)CO2` (single isomer, unassigned) [Compound 137, 6-(2,6-dimethylphenyl)-12-(7-methyl-7-azaspiro[3.5]nonan-2-yl)-2,2-dioxo-11-[[1-(trifluoromethyl)cyclopropyl]methyl]-9-oxa-2λ^6-thia-3,5,12,19-tetrazatricyclo[12.3.1.14,8]nonadeca-1(18),4(19),5,7,14,16-hexaen-13-one], in test [1], the “Ent. A Max Activity (%)” value is reported as “+++ (+++ is >60%)” and the pEC50 is 5.52 to 6.00.

With `Cc1cccc(C)c1-c1cc2nc(n1)NS(=O)(=O)c1cccc(c1)C(=O)N([C@H]1C[C@]3(CCCCN3C)C1)[C@H](CC(C)C)CO2` [Compound 331], in test [1], the “Ent. A Max Activity (%)” value was “+++ (+++ is >60%)” and the pEC50 was more than 6.00.

In the case of `COC(=O)N1CCC2(CC(N3C(=O)c4cccc(c4)S(=O)(=O)Nc4nc(cc(-c5c(C)cccc5C)n4)OC[C@H]3CC(C)C)C2)C1` (stereo partly shown) [Compound 328], in test [1], the “Ent. A Max Activity (%)” value was “+++ (+++ is >60%)” and the pEC50 is more than 6.00.

On to `Cc1cccc(C)c1-c1cc2nc(n1)NS(=O)(=O)c1cccc(c1)C(=O)N([C@H]1C[C@]3(CCN(C(C)C)C3)C1)[C@H](CC(C)C)CO2` (single isomer, unassigned) [Compound 34], for which, in test [1], the “Ent. A Max Activity (%)” value is reported as “+++ (+++ is >60%)” and the negative logarithm of the EC50 (pEC50) is more than 6.00.

Take `Cc1cccc(C)c1-c1cc2nc(n1)NS(=O)(=O)c1cccc(c1)C(=O)N(C1CC3(CCN(C[C@H](O)CO)CC3)C1)[C@H](CC(C)C)CO2` [Compound 341]: in test [1], the “Ent. A Max Activity (%)” value is “+++ (+++ is >60%)” and the pEC50 is more than 6.00.

As for `Cc1cccc(C)c1-c1cc2nc(n1)NS(=O)(=O)c1cccc(c1)C(=O)N(C1CCN(C)CC1)CCO2` [Compound 438], the “Ent. A Max Activity (%)” value in test [1] was “+ (+ is <300%)”.

`COC(=O)N1CCC2(CC1)CC(N1C(=O)c3cccc(c3)S(=O)(=O)Nc3nc(cc(-c4c(C)cccc4C)n3)OC[C@@H]1CC(C)C)C2` [Compound 113, Methyl 2-[(11S)-6-(2,6-dimethylphenyl)-11-isobutyl-2,2,13-trioxo-9-oxa-2λ^6-thia-3,5,12,19-tetrazatricyclo[12.3.1.14,8]nonadeca-1(18),4(19),5,7,14,16-hexaen-12-yl]-7-azaspiro[3.5]nonane-7-carboxylate]: in test [1], the “Ent. A Max Activity (%)” value is “++ (++ is 30-60%)” and the negative logarithm of the EC50 (pEC50) is more than 6.00.

The values above are taken from patent US20230382925A1, “MODULATORS OF CYSTIC FIBROSIS TRANSMEMBRANE CONDUCTANCE REGULATOR” (VERTEX PHARMACEUTICALS INCORPORATED, priority 2020, published 2023).
